Measurements taken from patent publication US20060281110A1, “Methods to identify antimicrobial compounds that interrupt ribosome biogenesis” (MICHIGAN STATE UNIVERSITY, priority 2005, published 2006).

Assays:
[1] = system: 45S intermediate; assay: In vitro association of YlqF-His6 with ribosomal particles (sucrose gradient, Western blot); format: binding, B. subtilis; conditions: incubated 10 minutes at 37° C.; 10-25% sucrose gradient; FIG. 16
Description: (§1) The data was collected from 12% SDS-PAGE electrophoresis and blotted to a nylon membrane using standard Western Blot analysis. Incubations using rabbit polyclonal YlqF antibody was followed by horseradish peroxidase-conjugated goat anti-rabbit antibody and Western Lightning® (PerkinElmer) chemiluminescent detection. Purified YlqF-His6 was added as a comparative marker.
(§2) A B. subtilis strain was constructed that expresses a YlqF-His6 fusion protein as the only functional YlqF copy in the cell. […] The YlqF-His6 fusion protein was purified and tested for association with purified 45S intermediates and mature 50S subunits. YlqF-His6 and either the 45S intermediate or 50S subunits were mixed and incubated for 10 minutes at 37° C. The mixtures were then fractionated on 10-25% sucrose gradients and individual fractions corresponding to the 45S and 50S peaks were collected. […] Although it is not necessary to understand the mechanism of an invention, it is believed that YlqF functions as a factor involved in the biogenesis of the 50S subunit.

[2] = system: 50S subunit; conditions: incubated 10 minutes at 37° C.; 10-25% sucrose gradient; FIG. 16
Description: as §1, §2

Substance: YlqF-His6: purified His6 fusion to the C-terminus of B. subtilis GTPase YlqF
- binding to 45S intermediate [1]: able to bind the 45S intermediate
- binding to mature 50S subunit [2]: not the 50S subunit
